Eight molecules from patent publication US11034650B2, “Compounds useful for treating a Mannheimia haemolytica or Histophilus somni infection” (Intervet Inc., priority 2016, dated 2021) can be followed below.

In brackets after ≈: the same amount, converted by molar mass.

Holding throughout (format): cell-based
For assay [1], the system named is Mannheimia haemolytica MH 10720 (154, BRD field isolate). The experiment in a line: MIC, broth-microdilution (CLSI VET01-A4), strain MH 10720. To be noted: Mannheimia haemolytica strain MH 10720, broth-microdilution; unit assumed. In a few lines:
(§1)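 Using trays holding a doubling concentration series, the MIC is read as the minimal concentration with no eye-detectable growth.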
(In general: In broth dilution the organism is exposed to a series of concentrations in liquid medium.)

The test system of assay [2] is Mannheimia haemolytica MH 12587 (1071, BRD field isolate, macrolide-resistance: erm+, E+). The experiment in a line: MIC, broth-microdilution (CLSI VET01-A4), strain MH 12587. To be noted: Mannheimia haemolytica strain MH 12587, broth-microdilution; unit assumed. In a few lines: as §1
Assay [3] deals with Pasteurella multocida PM 10775 (080130003051, BRD field isolate). The assay can be described thus: MIC, broth-microdilution (CLSI VET01-A4), strain PM 10775. To be noted: Pasteurella multocida strain PM 10775, broth-microdilution; unit assumed. In a few lines: as §1
Assay [4] concerns Mannheimia haemolytica MH 6357 (M7/2, reference strain, cattle infection strain). The assay can be described thus: MIC, broth-microdilution (CLSI VET01-A4), strain MH 6357. The conditions noted are these: Mannheimia haemolytica strain MH 6357, broth-microdilution; unit assumed. In a few lines:
as §1

Assay [5] deals with Mannheimia haemolytica MH 6374 (ATCC 33396, reference strain). The experiment in a line: MIC, broth-microdilution (CLSI VET01-A4), strain MH 6374. To be noted: Mannheimia haemolytica strain MH 6374, broth-microdilution; unit assumed. Put shortly:
as §1

Assay [6] relates to Mannheimia haemolytica MH 13065 (XB0446-6003.9, BRD field isolate). The experiment in a line: MIC, broth-microdilution (CLSI VET01-A4), strain MH 13065. To be noted: Mannheimia haemolytica strain MH 13065, broth-microdilution; unit assumed. Put shortly:
as §1

Assay [7] deals with Pasteurella multocida PM 12080 (IV102277-0093, BRD field isolate). The assay can be described thus: MIC, broth-microdilution (CLSI VET01-A4), strain PM 12080. To be noted: Pasteurella multocida strain PM 12080, broth-microdilution; unit assumed. In a few lines: as §1
In assay [8] the test system is Mannheimia haemolytica MH 13093 (XB0472-6014.1, BRD field isolate). The experiment in a line: MIC, broth-microdilution (CLSI VET01-A4), strain MH 13093. The conditions noted are these: Mannheimia haemolytica strain MH 13093, broth-microdilution; unit assumed. Put shortly: as §1
The test system of assay [9] is Pasteurella multocida PM 6391 (ATCC 43137, reference strain). The assay can be described thus: MIC, broth-microdilution (CLSI VET01-A4), strain PM 6391. The conditions noted are these: Pasteurella multocida strain PM 6391, broth-microdilution; unit assumed. Put shortly: as §1
Assay [10] has as its system Pasteurella multocida PM 6267 (P 2225 (L386), reference strain, mouse infection strain). The experiment in a line: MIC, broth-microdilution (CLSI VET01-A4), strain PM 6267. To be noted: Pasteurella multocida strain PM 6267, broth-microdilution; unit assumed. Put shortly: as §1

The molecule `CC(C)(C(NC(=O)c1ccc(C#Cc2ccc(CNCc3ccccc3)cc2)cc1)C(=O)NO)[N+](=O)[O-]` (centres unmarked) [Compound 276] displayed an MIC MH 10720 in [1] of at most 0.1 µg/mL. The molecule further yielded an MIC MH 12587 in assay [2] of 0.8 µg/mL (≈ 1.6 µM). For the same molecule, in assay [3], the MIC PM 10775 is at most 0.1 µg/mL. Also, the MIC MH 6357 in assay [4] came out at 0.8 µg/mL (≈ 1.6 µM). Moreover, the MIC MH 6374 in assay [5] is 0.8 µg/mL (≈ 1.6 µM). In assay [6], this molecule had an MIC MH 13065 of 0.4 µg/mL (≈ 0.799 µM). In assay [7], this molecule displayed an MIC PM 12080 of at most 0.1 µg/mL. Also, the MIC MH 13093 in assay [8] came to 0.8 µg/mL (≈ 1.6 µM). In addition, the MIC PM 6391 in assay [9] is 0.4 µg/mL (≈ 0.799 µM). In assay [10], the MIC PM 6267 was at most 0.1 µg/mL.

The molecule `CC(=O)C(NC(=O)c1ccc(C#Cc2ccc(CNCc3ccco3)cc2)cc1)C(=O)NO` (centres unmarked) [Compound 410] returned an MIC MH 10720 in assay [1] of 1.6 µg/mL (≈ 3.59 µM). In addition, the MIC MH 12587 in assay [2] was found to be 0.4 µg/mL (≈ 0.898 µM). Besides, the MIC PM 10775 in assay [3] came out at 0.8 µg/mL (≈ 1.8 µM). In addition, the MIC MH 6357 in [4] came to 0.8 µg/mL (≈ 1.8 µM). This molecule also returned an MIC MH 6374 in assay [5] of 1.6 µg/mL (≈ 3.59 µM). The molecule also returned an MIC MH 13065 in assay [6] of 1.6 µg/mL (≈ 3.59 µM). Further, in assay [7], the MIC PM 12080 amounted to 0.4 µg/mL (≈ 0.898 µM). The molecule also came in with an MIC MH 13093 in [8] of 1.6 µg/mL (≈ 3.59 µM). Moreover, the MIC PM 6391 in [9] is at most 0.1 µg/mL. This molecule also came in with an MIC PM 6267 in [10] of 6.3 µg/mL (≈ 14.1 µM).

`CC(C)(O)[C@H](NC(=O)c1ccc(C#Cc2ccc(CNCc3ccncc3)cc2)cc1)C(=O)NO` [Compound 275] had an MIC MH 10720 in assay [1] of at most 0.1 µg/mL. The molecule further came in with an MIC MH 12587 in assay [2] of 0.4 µg/mL (≈ 0.846 µM). In assay [3], this molecule had an MIC PM 10775 of at most 0.1 µg/mL. The molecule further had an MIC MH 6357 in [4] of 0.4 µg/mL (≈ 0.846 µM). This molecule returned an MIC MH 6374 in assay [5] of 0.2 µg/mL (≈ 0.423 µM). The molecule also displayed an MIC MH 13065 in assay [6] of 0.2 µg/mL (≈ 0.423 µM). The molecule also came in with an MIC PM 12080 in [7] of at most 0.1 µg/mL. The MIC MH 13093 in [8] amounted to 0.4 µg/mL (≈ 0.846 µM). The same molecule displayed an MIC PM 6391 in assay [9] of at most 0.1 µg/mL. The molecule further had an MIC PM 6267 in assay [10] of at most 0.1 µg/mL.

In turn, `CCCNCc1ccc(C#Cc2ccc(C(=O)N[C@H](C(=O)NO)[C@@H](C)CC)cc2)cc1` [Compound 193] had an MIC MH 10720 in assay [1] of 0.8 µg/mL (≈ 1.9 µM). In [2], this molecule showed an MIC MH 12587 of 6.3 µg/mL (≈ 14.9 µM). Further, the MIC PM 10775 in [3] is at most 0.1 µg/mL. This molecule gave an MIC MH 6357 in assay [4] of 6.3 µg/mL (≈ 14.9 µM). Further, the MIC MH 6374 in assay [5] is 6.3 µg/mL (≈ 14.9 µM). Also, the MIC MH 13065 in assay [6] amounted to 3.1 µg/mL (≈ 7.35 µM). Besides, the MIC PM 12080 in assay [7] was 0.4 µg/mL (≈ 0.949 µM). For the same molecule, the MIC MH 13093 in assay [8] is 3.1 µg/mL (≈ 7.35 µM). In addition, the MIC PM 6391 in [9] is 0.8 µg/mL (≈ 1.9 µM). For the same molecule, the MIC PM 6267 in assay [10] turned out to be 0.4 µg/mL (≈ 0.949 µM).

Take `CC(C)([C@H](NC(=O)c1ccc(C#Cc2ccc(CNCC3CCCO3)cc2)cc1)C(=O)NO)S(C)(=O)=O` (some centres unmarked) [Compound 273]: the MIC MH 10720 in [1] is 0.8 µg/mL (≈ 1.52 µM). The MIC MH 12587 in [2] was 6.3 µg/mL (≈ 11.9 µM). Further, the MIC PM 10775 in assay [3] was at most 0.1 µg/mL. The molecule also came in with an MIC MH 6357 in assay [4] of 6.3 µg/mL (≈ 11.9 µM). Further, the MIC MH 6374 in [5] turned out to be 3.1 µg/mL (≈ 5.88 µM). This molecule also showed an MIC MH 13065 in [6] of 3.1 µg/mL (≈ 5.88 µM). This molecule also had an MIC PM 12080 in assay [7] of at most 0.1 µg/mL. In addition, the MIC MH 13093 in [8] came out at 6.3 µg/mL (≈ 11.9 µM). This molecule yielded an MIC PM 6391 in [9] of 0.2 µg/mL (≈ 0.379 µM). The molecule further returned an MIC PM 6267 in assay [10] of at most 0.1 µg/mL.

On to `O=C(N[C@@H](CO)C(=O)NO)c1ccc(C#Cc2ccc(CNCc3ccnc(Cl)c3)cc2)cc1` [Compound 214], for which, in assay [1], the MIC MH 10720 was determined as 0.8 µg/mL (≈ 1.67 µM). In [2], this molecule yielded an MIC MH 12587 of 6.3 µg/mL (≈ 13.2 µM). The MIC PM 10775 in assay [3] is at most 0.1 µg/mL. In addition, the MIC MH 6357 in assay [4] worked out at 1.6 µg/mL (≈ 3.34 µM). For the same molecule, the MIC MH 6374 in [5] came out at 1.6 µg/mL (≈ 3.34 µM). This molecule also came in with an MIC MH 13065 in assay [6] of 3.1 µg/mL (≈ 6.47 µM). In [7], this molecule had an MIC PM 12080 of 0.4 µg/mL (≈ 0.835 µM). In assay [8], the MIC MH 13093 was found to be 3.1 µg/mL (≈ 6.47 µM). The molecule further came in with an MIC PM 6391 in assay [9] of 0.4 µg/mL (≈ 0.835 µM). Moreover, the MIC PM 6267 in assay [10] turned out to be 0.2 µg/mL (≈ 0.418 µM).

In turn, `Cc1ccc(CNCc2ccc(C#Cc3ccc(C(=O)N[C@@H](CO)C(=O)NO)cc3)cc2)cc1` [Compound 161] came in with an MIC MH 10720 in assay [1] of 0.8 µg/mL (≈ 1.75 µM). Moreover, in [2], the MIC MH 12587 is 6.3 µg/mL (≈ 13.8 µM). Moreover, in assay [3], the MIC PM 10775 is at most 0.1 µg/mL. This molecule also yielded an MIC MH 6357 in assay [4] of 1.6 µg/mL (≈ 3.5 µM). For the same molecule, in assay [5], the MIC MH 6374 was determined as 1.6 µg/mL (≈ 3.5 µM). For the same molecule, the MIC MH 13065 in [6] is 3.1 µg/mL (≈ 6.78 µM). This molecule also gave an MIC PM 12080 in assay [7] of 0.2 µg/mL (≈ 0.437 µM). In [8], this molecule gave an MIC MH 13093 of 6.3 µg/mL (≈ 13.8 µM). The MIC PM 6391 in assay [9] is 0.8 µg/mL (≈ 1.75 µM). Besides, the MIC PM 6267 in assay [10] came out at 0.2 µg/mL (≈ 0.437 µM).

As to `CC(C)(C(NC(=O)c1ccc(C#Cc2ccc(CNCC(F)(F)F)cc2)cc1)C(=O)NO)[N+](=O)[O-]` (centres unmarked) [Compound 288], the MIC MH 10720 in assay [1] was at most 0.1 µg/mL. The same molecule showed an MIC MH 12587 in [2] of 0.8 µg/mL (≈ 1.62 µM). Also, the MIC PM 10775 in assay [3] is at most 0.1 µg/mL. This molecule also displayed an MIC MH 6357 in assay [4] of 0.4 µg/mL (≈ 0.812 µM). In addition, the MIC MH 6374 in [5] came out at 0.8 µg/mL (≈ 1.62 µM). For the same molecule, in [6], the MIC MH 13065 came to 0.4 µg/mL (≈ 0.812 µM). Besides, in assay [7], the MIC PM 12080 was at most 0.1 µg/mL. The same molecule registered an MIC MH 13093 in [8] of 0.8 µg/mL (≈ 1.62 µM). Also, the MIC PM 6391 in assay [9] was at most 0.1 µg/mL. In [10], this molecule showed an MIC PM 6267 of 0.4 µg/mL (≈ 0.812 µM).
